Assay [1] deals with Keraskin™ artificial skin. The assay is described as follows: Recovery of damaged artificial skin (measurement of transepithelial electrical resistance). The class given is cell-based. As to conditions: for Change of TEER (%): Keraskin artificial skin, TEER after 24 h post-incubation divided by the initial value. The procedure: Transepithelial electrical resistance was measured in order to test recovery of damaged artificial skin by the compound of Example 2. Dodecanoic acid 2-dodecanoylamino-3-hydroxy-2-hydroxymethyl-propyl ester obtained from the Example 2 and phosphate buffered saline (PBS), octyl methoxycinnamate (OMC) and PC-104 were tested for comparison.
Transepithelial electrical resistance (TEER) of Keraskin™ purchased from MCTT was measured after 22 hours of pre-incubation. After placing the Keraskin™ on a 6-well plate, 400 μL of a medium was added in an insert and 5 mL of the medium was added outside the insert such that an even level was achieved inside and outside the insert. Then, measurement was made with the electrode tips of a resistance meter inside and outside the insert. TEER was measured for all the inserts, prior to the test, after treatment with the substances of Example 2 and Comparative Examples 1-3 and 24 hours after post-incubation. The TEER after the post-incubation was divided by the initial value to calculate the change in %.

The next assay relates to artificial skin. In words: Quantitative analysis of ceramide in artificial skin. The class given is cell-based. Further details: C18SM: unit not given here. As to conditions: for C18SM / ceramide in artificial skin (ng/mg skin): artificial skin, LC analysis, corrected for skin weight. As to the method:
Artificial skin was weighed and put in a 4-mL glass vial. After adding 2400 μL of CHCl3/MeOH (=½) and 100 μL of IS STD, the artificial skin was cut into small pieces with scissors. After sonication for 30 minutes, solutions mixing sodium lauryl sulfate (SLS) to each of dodecanoic acid 2-dodecanoylamino-3-hydroxy-2-hydroxymethyl-propyl ester obtained from the Example 2, phosphate buffered saline (PBS), octyl methoxycinnamate (OMC) and PC-104, as described in Table 2, were filtered through a PTFE syringe filter, and 1250 μL of each filtrate was transferred to an EP tube.
After completely removing the solvent using a speed vacuum dryer, the residue was redissolved by adding 100 μL of an analytical mobile phase. After centrifugation, only the supernatant was taken and analyzed after transferring to an LC vial. The concentration of ceramide was corrected for the weight of the artificial skin.

Setting [2] is: test substance mixed with sodium lauryl sulfate (SLS).

The values below come from US20150290099A1, “NOVEL PSEUDOCERAMIDE COMPOUND AND PRODUCTION METHOD FOR SAME” (AMOREPACIFIC CORPORATION, priority 2012, published 2015).

Each structure is given as a SMILES string.

For the compound `CCCCC(CC)COC(=O)C=Cc1ccc(OC)cc1` (stereo not shown) [Comparative Example 2, octyl methoxycinnamate], the “Change of TEER (%)” value in assay [1] worked out at 30.9%. Further, in the assay on artificial skin (PBS instead of SLS), the C18SM is given as 1747.3 and the “ceramide in artificial skin (ng/mg skin)” value amounted to 990.8 ng/mg skin. Also, in the assay on artificial skin (setting [2]), the C18SM amounted to 843.6 and the “ceramide in artificial skin (ng/mg skin)” value turned out to be 758.3 ng/mg skin.
For `CCCCCCCCCCCCCCCC(=O)N(CCO)CC(O)CN(CCO)C(=O)CCCCCCCCCCCCCCC` [Comparative Example 3], the “Change of TEER (%)” value in assay [1] was found to be 35.7%. In the assay with artificial skin (setting [2]), the C18SM was 1141.1 and the “ceramide in artificial skin (ng/mg skin)” value stood at 995.5 ng/mg skin.
Take `CCCCCCCCCCCC(=O)NC(CO)(CO)COC(=O)CCCCCCCCCCC` [Example 2, dodecanoic acid 2-dodecanoylamino-3-hydroxy-2-hydroxymethyl-propyl ester]: the “Change of TEER (%)” value in assay [1] was determined as 70.8%. In addition, the “effect of recovering damaged artificial skin (TEER), in words” value in assay [1] (compared with PC-104) was “higher than the conventionally used PC-104”. In addition, in the assay on artificial skin (setting [2]), the C18SM came to 1811.5 and the “ceramide in artificial skin (ng/mg skin)” value was 1152.4 ng/mg skin. Further, the “ceramide content in the artificial skin, in words” value in the assay on artificial skin (compared with PC-104) is “higher than that for PC-104”.
